Measurements from patent publication US6875761B2 (Eisai Co., Ltd., priority 1997, dated 2005).
Counter-ions that a name gives are not always drawn.

SMILES	melting point
CCN1CCN(c2nc(-c3ccc(C(O)C(C)(C)CO)cc3)cc3ccccc23)CC1 (stereo not shown) (as salt: hydrochloride) [Example 391, 1-(4-Ethylpiperazin-1-yl)-3-[4-(1,3-Dihydroxy-2,2-Dimethylpropyl)Phenyl]Isoquinoline Dihydrochloride]	150.5 to 151.5 °C
CCN1CCN(c2nc(-c3ccc(CC4CCOCC4)cc3)cc3ccccc23)CC1 (as salt: hydrochloride) [Example 399, 1-(4-Ethylpiperazin-1-yl)-3-[4-(tetrahydropyran-4-yl)Methylphenyl]Isoquinoline Dihydrochloride]	182 to 184 °C (dec.)
CCN1CCN(c2nc(-c3cnc(N4CCOCC4)s3)cc3ccccc23)CC1 (as salt: hydrochloride) [Example 173, 1-(1-ethylpiperazin-4-yl)-3-[2-(4-morpholinyl)-5-thiazolyl]isoquinoline dihydrochloride]	265 °C (dec.)
CCN1CCN(c2nc(-c3ccc(CNS(=O)(=O)CC)c(Cl)c3)cc3ccccc23)CC1 (as salt: hydrochloride) [Example 91, 3-(3-Chloro-4-ethylsulfonylaminomethylphenyl)-1-(4-ethylpiperazin-1-yl)isoquinoline Hydrochloride]	278 to 280 °C (dec.)
CCN1CCN(c2nc(Cc3ccccc3)cc3ccccc23)CC1 (as salt: hydrochloride) [Example 419, 1-(4-ethylpiperazin-1-yl)-3-benzylisoquinoline]	118 to 119 °C
CCN1CCN(c2nc(-c3ccnc(OCCOC)c3)cc3ccccc23)CC1 (as salt: hydrochloride) [Example 407, 1-(4-ethylpiperazin-1-yl)-3-[2-(2-methoxyethoxy)pyridin-4-yl]isoquinoline]	139 to 140 °C
CCN1CCN(c2nc(-c3ccc(OCCn4ccnc4)cc3)cc3ccccc23)CC1 (as salt: hydrochloride) [Example 56, 3-{4-[2-(1-Imidazonyl)Ethoxy]phenyl}-1-(4-Ethylpiperazin-1-Yl)Isoquinoline Hydrochloride]	160 to 162 °C
CCN1CCN(c2nc(-c3ccc(OCCCC#N)cc3)cc3ccccc23)CC1 (as salt: hydrochloride) [Example 53, 3-[4-(3-Cyanopropoxy)Phenyl]-1-(4-Ethylpiperazin-1-Yl)Isoquinoline Hydrochloride]	144 to 146 °C
CCN1CCN(c2nc(-c3ccc(C(F)CCO)cc3)cc3ccccc23)CC1 (stereo not shown) (as salt: hydrochloride) [Example 27, 1-(1-Ethylpiperazin-4-yl)-3-[4-(3-hydroxy-1-fluoropropyl)phenyl]isoquinoline]	141 to 146 °C
CCN1CCN(c2nc(-c3ccc(S(=O)(=O)CC)nc3)cc3ccccc23)CC1 (as salt: hydrochloride) [Example 130, 3-[(2-Ethylsulfonylpyridin)-5-yl]-1-(4-Ethylpiperazin-1-yl)Isoquinoline Hydrochloride]	155 to 159 °C
CCN1CCN(c2nc(-c3ccc([C@H]4CC[C@@H](O)CC4)cc3)cc3ccccc23)CC1 (as salt: hydrochloride) [Example 397, 1-(4-Ethylpiperazin-1-yl)-3-[4-(cis-4-Hydroxycyclohexyl)Phenyl]Isoquinoline Dihydrochloride]	152 to 153 °C
CCN1CCN(c2nc(-c3cccc(OC)c3)cc3ccccc23)CC1 (as salt: hydrochloride) [Example 9, 1-(4-ethylpiperazin-1-yl)-3-(3-methoxyphenyl)isoquinone Dihydrochloride]	108 to 110 °C
CCN1CCN(c2nc(-c3ccc(C(F)CCO)cc3)cc3cccnc23)CC1 (stereo not shown) (as salt: hydrochloride) [Example 249, 8-(1-ethylpiperazin-4-yl)-6-[4-(3-hydroxy-1-fluoropropyl)phenyl]-1,7-naphthyridine Dihydrochloride]	123 to 125 °C
CCN1CCN(c2nc(-c3ccc(S(=O)(=O)N(CC)CC)cc3)cc3ccccc23)CC1 (as salt: hydrochloride) [Example 359, 1-(4-ethylpiperazin-1-yl)-3-[4-(N,N-diethylsulfamoyl)phenyl]isoquinoline dihydrochloride]	210 to 212 °C (dec.)
CCN1CCN(c2nc(/C=C/c3ccccc3)cc3ccccc23)CC1 (as salt: hydrochloride) [Example 189, 1-(1-Ethylpiperazin-4-Yl)-3-(Trans-2-Phenylethenyl)Isoquinoline Dihydrochloride]	222 to 225 °C
CCN1CCN(c2nc(-c3ccc(OC)c(CCCO)c3)cc3ccccc23)CC1 (as salt: hydrochloride) [Example 34, 3-[3-(3-hydroxypropyl)-4-methoxyphenyl]-1-(4-ethylpiperazin-1-yl)isoquinoline hydrochloride]	157 to 160 °C
CCN1CCN(c2nc(-c3ccc(OCCO)cc3)cc3sccc23)CC1 (as salt: hydrochloride) [Example 286, dihydrochloride]	128 to 129 °C
CCN1CCN(c2nc(-c3ccc(N4CCC(O)CC4)cc3)cc3ccccc23)CC1 (as salt: hydrochloride) [Example 97, 1-(4-Ethylpiperazin-1-yl)-3-[4-(4-hydroxypiperidin-1-yl)phenyl]isoquinoline Trihydrochloride]	178 °C
CCN1CCN(c2nc(-c3ccc(S(=O)(=O)N(C)C)cc3)cc3ccccc23)CC1 (as salt: hydrochloride) [Example 362, 1-(4-ethylpiperazin-1-yl)-3-[4-(N,N-dimethylsulfamoyl)phenyl]isoquinoline dihydrochloride]	155 to 156 °C
CCN1CCN(c2nc(NC(=O)c3ccccc3)cc3ccccc23)CC1 (as salt: hydrochloride) [Example 421, 3-benzamide-1-(4-ethylpiperazin-1-yl)isoquinoline]	160 to 162 °C
CCN1CCN(c2nc(/C=C(\C)c3ccc(N4CCOCC4)cc3)cc3ccccc23)CC1 (as salt: oxalate) [Example 206, 3-{(E)-2-Methyl-2-[4-(4-Morpholinyl)Phenyl]Ethenyl}-1-(4-Ethylpiperazin-1-Yl)Isoquinoline Oxalate]	266 to 267 °C
COc1ccc(-c2cc3ccccc3c(N3CCN(C)CC3)n2)cc1 (as salt: hydrochloride) [Example 2, 1-(1-methylpiperazin-4-yl)-3-(4-methoxyphenyl)isoquinoline]	134 to 136 °C
CCN1CCN(c2nc(-c3ccc(OCC#N)cc3)cc3ccccc23)CC1 (as salt: hydrochloride) [Example 51, 3-(4-Cyanomethoxyphenyl)-1-(4-Ethylpiperazin-1-Yl)Isoquinoline Hydrochloride]	123 to 125 °C

The next lines start with the values.

melting point	SMILES
127.5 to 129 °C	CCN1CCN(c2nc(-c3ccc(C(O)C4CCCCC4)cc3)cc3ccsc23)CC1 (stereo not shown) (as salt: hydrochloride) [Example 457, 7-(4-Ethylpiperazin-1-yl)-5-[4-(cyclohexylhydroxymethyl)phenyl]thieno[2,3-c]pyridine dihydrochloride]
194 to 195 °C	CCN1CCN(c2nc(-c3ccc(CC(C)(C)CO)cc3)cc3ccccc23)CC1 (as salt: oxalate) [Example 389, 1-(4-Ethylpiperazin-1-yl)-3-[4-(3-Hydroxy-2,2-Dimethylpropyl)Phenyl]Isoquinoline Oxalate]
110.5 to 112 °C	CCN1CCN(c2nc(-c3ccc(CCC(C)O)cc3)cc3ccsc23)CC1 (stereo not shown) (as salt: hydrochloride) [Example 440, 7-(4-ethylpiperazin-1-yl)-5-[4-(3-hydroxybutyl)phenyl]thieno[2,3-c]pyridine dihydrochloride]
222 to 227 °C	CCN1CCN(c2nc(-c3ccc(OC)cc3)cc3cccc(F)c23)CC1 (as salt: hydrochloride) [Example 233, 1-(1-ethylpiperazin-4-yl)-8-fluoro-3-(4-methoxyphenyl)isoquinoline dihydrochloride]
102 to 104 °C	CCN1CCN(c2nc(-c3ccc(OCCCO)cc3)cc3sccc23)CC1 (as salt: hydrochloride) [Example 462, 4-(4-ethylpiperazin-1-yl)-6-[4-(3-hydroxypropoxy)phenyl]thieno[3,2-c]pyridine dihydrochloride]
130 °C (dec.)	CCN1CCN(c2nc(-c3ccc(OCCO)cc3)cc3cscc23)CC1 (as salt: oxalate) [Example 278, 4-(4-ethylpiperazin-1-yl)-6-[4-(2-hydroxyethoxy)phenyl]thieno-[3,4-c]pyridine oxalate]
113 to 114 °C	CCN1CCN(c2nc(-c3ccc(CC(C)(C)CO)cc3)cc3ccsc23)CC1 (as salt: hydrochloride) [Example 442, 7-(4-ethylpiperazin-1-yl)-5-[4-(3-hydroxy-2,2-dimethylpropyl)phenyl]thieno[2,3-c]pyridine dihydrochloride]
127.5 to 128 °C	CCCCNC(=O)c1ccc(-c2cc3ccsc3c(N3CCN(CC)CC3)n2)cc1 (as salt: hydrochloride) [Example 452, 7-(4-ethylpiperazin-1-yl)-5-[4-(N-butylcarbamoyl)phenyl]thieno[2,3-c]pyridine dihydrochloride]
146 to 148 °C	CCN1CCN(c2nc(-c3ccc([C@@H]4C[C@@H](O)CCO4)cc3)cc3ccsc23)CC1 (relative stereo) (as salt: hydrochloride) [Example 455, 7-(4-ethylpiperazin-1-yl)-5-[4-(trans-4-hydroxytetrahydropyran-2-yl)phenyl]thieno[2,3-c]pyridine dihydrochloride]
222 °C (dec.)	CCN1CCN(c2nc(-c3ccc(OC)cc3)cc3ccncc23)CC1 (as salt: hydrochloride) [Example 428, 1-(4-ethylpiperazin-1-yl)-3-(4-methoxyphenyl)-7-azaisoquinoline]
216.5 to 218 °C (dec.)	CCN1CCN(c2nc(-c3ccc(S(C)(=O)=O)cc3)cc3ccccc23)CC1 (as salt: hydrochloride) [Example 342, 1-(4-ethylpiperazin-1-yl)-3-(4-methylsulfonylphenyl)isoquinoline dihydrochloride]
